Where two headings read alike, the source gives them in different places.
Columns and labels:
Enterococcus = assay: Example 6 infected decubitus ulcer of a patient; type: in vivo, human; conditions: five days of antibiotic before the composition
Description: Both swabs were sent to the lab and a count of colony-forming units (CFUs) was ordered.

mycobacteria marinum = assay: Example 7 finger infection of a patient; type: in vivo, human; conditions: eleven days of antibiotics before the composition
Procedure: Action against Mycobacteria: A person with four-month long history of an infection on the posterior aspect of their right ring finger was treated. […] After failing two full courses of oral antibiotics, over the previous four months, the patient was given a third round of antibiotics, this time Clarythromycin, after their finger's condition had worsened.

MRSA = conditions: human, in vivo; cited from earlier work
[1] = tested on: ATCC 29213 (MSSA) and ATCC 43330 (MRSA)
Procedure: Testing was conducted at a pathology laboratory certified for microbiology testing by a physician and a microbiologist. A double blind, randomized controlled experiment was conducted to evaluate the SBDS surfactant against bacteria in Petri dishes.
(§1) Bacterial strain: Two well characterized strains of methicillin-sensitive Staphylococcus aureus (MSSA) and methicillin-resistant Staphylococcus aureus (MRSA) were used. Specifically, experiments used ATCC 29213 (MSSA) and ATCC 43330 (MRSA), both beta-lactamase positive strains, which represent greater than 90% of the respective strains in the American population.
(§2) Petri dish preparation: A sterile cotton swab (American Scientific Products, McGraw Park, Ill.) was dipped into the cultures and used to swab the entire surface of 150×15 mm Petri dishes containing 75 ml of standard Mueller-Hinton agar. Two Petri dishes were inoculated with ATCC 29213 (MSSA and two Petri dishes with ATCC 43330 (MRSA). One Petri dish of each group (MSSA and MRSA) was set aside as the controls. The other two Petri dishes (MSSA and MRSA) were divided up in quadrants, and each quadrant was labeled B, C, D or E.
To evaluate a wider range of surfactant concentrations, cleanser compositions were prepared as follows: A surfactant solution and a stock solution were mixed in various ratios to produce four skin cleanser solutions having four different surfactant concentrations of […], weight-to-weight. The amount of other ingredients in each of the four skin cleanser solutions was less than 1% concentration weight-to-weight.
Cleanser Testing: Four samples of the cleanser with the four different concentrations of the surfactant […] were placed into four separate, unmarked bottles. Each bottle was randomly labeled (B, C, D, or E), and the microbiologist conducting the study was unaware of any difference between the solutions.
(§3) Application: Holding each bottle vertically, the microbiologist added a single drop from each bottle (B, C, D, or E) to the corresponding quadrant of the labeled Petri dish. All four Petri dishes were placed in an incubator overnight at 37 degrees Celsius, and examined 20 hours later. Petri dishes were compared to the corresponding controls, and zones of inhibition were characterized by the largest point of diameter of the circle or oval.

MRSA strains = conditions: averaged over three repeated experiments
Description: as §1, §2, §3

## O=C(O)c1cn(C2CC2)c2cc(N3CCNCC3)c(F)cc2c1=O [ciprofloxacin]
Enterococcus
  course of ulcer on antibiotic: showed signs of worsening

## CC[C@H]1OC(=O)[C@H](C)[C@@H](O[C@H]2C[C@@](C)(OC)[C@@H](O)[C@H](C)O2)[C@H](C)[C@@H](O[C@@H]2O[C@H](C)C[C@H](N(C)C)[C@H]2O)[C@](C)(OC)C[C@@H](C)C(=O)[C@H](C)[C@@H](O)[C@]1(C)O [Clarythromycin]
Mycobacteria marinum
  change in symptoms on antibiotic: no change in symptoms

## CN[C@H](CC(C)C)C(=O)N[C@H]1C(=O)N[C@@H](CC(N)=O)C(=O)N[C@H]2C(=O)N[C@H]3C(=O)N[C@H](C(=O)N[C@H](C(=O)O)c4cc(O)cc(O)c4-c4cc3ccc4O)[C@H](O)c3ccc(c(Cl)c3)Oc3cc2cc(c3O[C@@H]2O[C@H](CO)[C@@H](O)[C@H](O)[C@H]2O[C@H]2C[C@](C)(N)[C@H](O)[C@H](C)O2)Oc2ccc(cc2Cl)[C@H]1O [Vancomycin]
MRSA
  share of MRSA patients for whom usually effective: about 40%

## Sodium Dodecylbenzene Sulfonate [surfactant]
[1]; surfactant concentration 0.5%, single drop, 20 hours, 37 degrees Celsius
  difference from controls: no difference between the controls
[1]; surfactant concentration 1%
  inhibition of colony forming units (CFUs): approximately 50%
[1]; surfactant concentration 2%
  inhibition of colony forming units (CFUs): approximately 50%
[1]; surfactant concentration 8%
  diameter of circle of clear inhibition: approximately 40 mm
MRSA strains; Surfactant conc. 1.00% (vol. %)
  Diameter of Zone of Inhibition (mm): No Change
MRSA strains; Surfactant conc. 2.30% (vol. %)
  Diameter of Zone of Inhibition (mm): 35.3 mm
MRSA strains; Surfactant conc. 2.50% (vol. %)
  Diameter of Zone of Inhibition (mm): 33.7 mm
MRSA strains; Surfactant conc. 2.80% (vol. %)
  Diameter of Zone of Inhibition (mm): 32.7 mm
MRSA strains; Surfactant conc. 3.30% (vol. %)
  Diameter of Zone of Inhibition (mm): 37.3 mm
MRSA strains; Surfactant conc. 4.00% (vol. %)
  Diameter of Zone of Inhibition (mm): 39.3 mm
MRSA strains; Surfactant conc. 4.90% (vol. %)
  Diameter of Zone of Inhibition (mm): 41.7 mm
MRSA strains; Surfactant conc. 6.50% (vol. %)
  Diameter of Zone of Inhibition (mm): 39 mm
MRSA strains; Surfactant conc. 9.30% (vol. %)
  Diameter of Zone of Inhibition (mm): 34 mm
MRSA strains; Surfactant conc. 14.80% (vol. %)
  Diameter of Zone of Inhibition (mm): 42.3 mm

From patent US10894032B2, “Microbial-relief composition” (Curazene, LLC, priority 2014, dated 2021)
